This is an account of results in article PMC6736568, “Discovery of Novel Anti-cryptosporidial Activities From Natural Products by in vitro High-Throughput Phenotypic Screening” (Frontiers in Microbiology, 2019).

The test system of one data set is Cryptosporidium parvum. As to the kind of experiment: qRT-PCR assay of the growth of C. parvum in vitro in HCT-8 host cells (primary and secondary screening, EC50). It is filed as cell-based. The settings on record: Cryptosporidium parvum, HCT-8; for inhibition at 10 µM: primary screening at 10 uM, read-out: Inhibition (%); for inhibition at 3.3 µM: secondary screening at 3.3 uM, read-out: % Inhibition (3.3 uM). (Real-time PCR tracks product formation cycle by cycle.)

Another data set in a line: in vitro. The settings on record: for cytotoxicity at 41 h, 10 µM: human.
Setting [1] is: primary screening at 10 uM, treated vs control.

Counter-ions that a name gives are not always drawn. Like-named read-outs stand apart in the source and are kept apart here.

In the case of `CN1[C@@H]2CC[C@H]1C[C@@H](OC(=O)C(CO)c1ccccc1)C2` (stereo partly shown) [ATROPINE SULFATE], in the data set on Cryptosporidium parvum, the inhibition at 10 µM came out at 3.7%. Besides, the “Hs18S ΔCT” value in the data set with HCT-8 host cells (Hs18S) (setting [1]) is recorded as 0.26. For the same compound, in “in vitro”, the cytotoxicity at 10 µM is 16.3%.
On to `C[C@H](CCC(=O)O)[C@H]1CC[C@H]2[C@@H]3[C@@H](O)C[C@@H]4C[C@H](O)CC[C@]4(C)[C@H]3CC[C@]12C` [URSODIOL], for which, in the data set on Cryptosporidium parvum, the inhibition at 10 µM was -41.7%. Besides, the “Hs18S ΔCT” value in the data set with HCT-8 host cells (Hs18S) (human, 41 h, 10 μM) was -0.15. In addition, the cytotoxicity at 41 h, 10 µM in “in vitro” is -10.9%.
With `C[C@]12CCC(=O)C=C1CC[C@@H]1[C@@H]2[C@@H](O)C[C@@]2(C)[C@H]1CC[C@]2(O)C(=O)CO` [HYDROCORTISONE], the inhibition at 10 µM in the data set on Cryptosporidium parvum was 21.1%. Further, the “Hs18S ΔCT” value with HCT-8 host cells (Hs18S) (human, 41 h, 10 μM) is -0.47. The cytotoxicity at 41 h, 10 µM in “in vitro” is -38.1%.
The corresponding values for `CC(C)=CCc1c(O)cc2oc(C)cc(=O)c2c1O` [PEUCENIN] are 2.08%, -0.39 and -31.3%.
The corresponding values for `C[C@@H]1CC[C@H]2[C@@H](C)C(=O)O[C@@H]3O[C@@]4(C)CC[C@@H]1[C@]32OO4` [ARTEMISININ] are 16.7%, 0.00 and 0%.
The corresponding values for `COc1cc(OC)c2ccc(=O)oc2c1` [CITROPTEN] are -43.6%, 0.38 and 23.1%.
In the case of `Cc1nccc2c1[nH]c1ccccc12` [HARMANE], the inhibition at 10 µM in the data set on Cryptosporidium parvum is -23.2%. Further, the “Hs18S ΔCT” value in the data set on HCT-8 host cells (Hs18S) (setting [1]) is on record as 0.07. Also, the cytotoxicity at 10 µM in the data set “in vitro” came out at 4.5%.
Regarding `COC(=O)C[C@H]1C(C)(C)[C@@H](O)[C@@H]2CC3=C4CC(O)O[C@@H](c5ccoc5)[C@]4(C)CCC3[C@@]1(C)C2=O` (stereo partly drawn) [3,16-DIDEOXYMEXICANOLIDE-3beta-DIOL], in the data set on Cryptosporidium parvum, the inhibition at 10 µM came out at 87.5% and the inhibition at 3.3 µM is 52%. For the same compound, in the data set on HCT-8 host cells (Hs18S) (human, 41 h, 10 μM), the “Hs18S ΔCT” value was -0.18. In the data set “in vitro”, the cytotoxicity at 41 h, 10 µM is -13.4%.
Consider `CCC(C)C(=O)O[C@@H]1C[C@@]2(C)[C@H](c3ccoc3)OC(=O)CC23OC2(C)O[C@]14[C@]1(C)[C@@H](CC(=O)OC)C5(C)CC1(O)[C@](O)(C5OC(=O)C1(C)OC1C)[C@@H](OC(C)=O)[C@]34O2` (stereo partly shown) [UTILIN], for which the inhibition at 10 µM in the data set on Cryptosporidium parvum turned out to be 36.8%. Further, the “Hs18S ΔCT” value in the data set with HCT-8 host cells (Hs18S) (human, 41 h, 10 μM) turned out to be 0.06. Also, the cytotoxicity at 41 h, 10 µM in “in vitro” stood at 4.2%.
Regarding `C[C@H]1CC[C@]2(NC1)O[C@H]1C[C@H]3[C@@H]4CC[C@H]5C[C@@H](O[C@@H]6O[C@H](CO)[C@H](O[C@@H]7O[C@H](CO)[C@@H](O)[C@H](O[C@@H]8OC[C@@H](O)[C@H](O)[C@H]8O)[C@H]7O[C@@H]7O[C@H](CO)[C@@H](O)[C@H](O)[C@H]7O)[C@H](O)[C@H]6O)CC[C@]5(C)[C@H]4CC[C@]3(C)[C@H]1[C@@H]2C` [TOMATINE], in the data set with Cryptosporidium parvum, the inhibition at 10 µM is 92.9% and the inhibition at 3.3 µM worked out at 25%. Further, the “Hs18S ΔCT” value in the data set with HCT-8 host cells (Hs18S) (setting [1]) was determined as 0.04. The cytotoxicity at 10 µM in the data set “in vitro” came to 2.7%.
On to `O=C1c2cccc(O)c2C(=O)c2c(O)cccc21` [DANTHRON], for which the inhibition at 10 µM in the data set with Cryptosporidium parvum was found to be 23%. Besides, the “Hs18S ΔCT” value in the data set on HCT-8 host cells (Hs18S) (setting [1]) is -0.12. In the data set “in vitro”, the cytotoxicity at 41 h, 10 µM is -8.6%.
As for `C[C@@H]1O[C@@H](Oc2c(-c3ccc(O)c(O)c3)oc3cc(O)cc(O)c3c2=O)[C@H](O)[C@H](O)[C@H]1O` [QUERCITRIN], the inhibition at 10 µM in the data set on Cryptosporidium parvum is 3.89%. Further, in the data set with HCT-8 host cells (Hs18S) (setting [1]), the “Hs18S ΔCT” value is on record as -0.65. Moreover, the cytotoxicity at 10 µM in the data set “in vitro” is -57.2%.
`CC[C@]1(O)C[C@@H]2CN(CCc3c([nH]c4ccccc34)[C@@](C(=O)OC)(c3cc4c(cc3OC)N(C)[C@H]3[C@@](O)(C(=O)OC)[C@H](OC(C)=O)[C@]5(CC)C=CCN6CC[C@]43[C@@H]65)C2)C1` [VINBLASTINE SULFATE]: in the data set on Cryptosporidium parvum, the inhibition at 10 µM was 71.7% and the inhibition at 3.3 µM turned out to be 67%. Moreover, the “Hs18S ΔCT” value in the data set with HCT-8 host cells (Hs18S) (human, 41 h, 10 μM) is 0.81. Moreover, the cytotoxicity at 41 h, 10 µM in the data set “in vitro” was 43%.
In the same order, the values of `CC1=CC(=O)c2c(O)cccc2C1=O` [PLUMBAGIN] are 95.1%, 13%, 1.26 and 58.1%.
For `C[C@@H]1CC[C@H]2C(C)(C)[C@H]3C[C@@]12CC[C@@]3(C)O` [CEDROL], the inhibition at 10 µM in the data set with Cryptosporidium parvum was -4.53%. For the same compound, in the data set with HCT-8 host cells (Hs18S) (human, 41 h, 10 μM), the “Hs18S ΔCT” value was -0.11. In addition, in the data set “in vitro”, the cytotoxicity at 41 h, 10 µM is -7.7%.
As for `CC1=C(/C=C/C(C)=C/C=C/C(C)=C/C(=O)O)C(C)(C)CCC1` [TRETINOIN], the inhibition at 10 µM in the data set with Cryptosporidium parvum is 7.49%. In addition, the “Hs18S ΔCT” value in the data set on HCT-8 host cells (Hs18S) (human, 41 h, 10 μM) was -0.28. For the same compound, the cytotoxicity at 41 h, 10 µM in the data set “in vitro” was -21.5%.
As for `N[C@@H](Cc1ccc(O)c(O)c1)C(=O)O` [LEVODOPA], the inhibition at 10 µM in the data set with Cryptosporidium parvum is -9.67%. Moreover, the “Hs18S ΔCT” value in the data set with HCT-8 host cells (Hs18S) (human, 41 h, 10 μM) was -0.21. In the data set “in vitro”, the cytotoxicity at 41 h, 10 µM is -15.4%.
The corresponding values for `CCCCCCCCCCCCCCCCCCCCCCO` [DOCOSANOL] are 24.4%, -0.38 and -30.5%.
In the same order, the values of `CCCCC[C@H](CC(=O)O)C(=O)O` [NONIC ACID] are -17.1%, 0.06 and 3.9%.
As to `COC(=O)/C(=C1/OC(=O)C(c2ccccc2)=C1O)c1ccccc1` [VULPINIC ACID], in the data set with Cryptosporidium parvum, the inhibition at 10 µM is -77.9%. Also, the “Hs18S ΔCT” value in the data set on HCT-8 host cells (Hs18S) (human, 41 h, 10 μM) is recorded as 0.64. Besides, the cytotoxicity at 41 h, 10 µM in “in vitro” stood at 36%.

Broadly, the inhibition is the drop in the measured response relative to a control, in per cent.
